{
  "source": "patent US11413278B2",
  "about": "“Compounds and methods for promoting stress resistance” (priority 2015, dated 2022)",
  "key": {"FOXO3": {"test_system": "FOXO3", "test": "qPCR analysis of FOXO3-regulated genes", "type": "cell-based, human", "conditions": "for fold induction at 10 µM: Homo sapiens", "outline": "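WI-38 cells treated with compound at 10 μM for 24 h, followed by Cells-to-Ct RT-qPCR of FOXO3 target genes normalised to B2M, PPIA and GAPDH. FOXO3 or NRF2 dependence tested by prior 10 nM siRNA knockdown (36 h transfection, compound added ~24 h after replating).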"}, "C. elegans": {"test_system": "C. elegans", "test": "C. elegans lifespan assays (liquid and plate)", "type": "in vivo, Caenorhabditis elegans", "conditions": "for ILS at 60 µM / ILS at 66 µM: Caenorhabditis elegans"}, "human PARP1": {"target": "T1, human PARP1 (Homo sapiens, UniProt P09874)", "T1 construct": "purchased Trevigen", "T1 sequence (P09874 whole entry)": "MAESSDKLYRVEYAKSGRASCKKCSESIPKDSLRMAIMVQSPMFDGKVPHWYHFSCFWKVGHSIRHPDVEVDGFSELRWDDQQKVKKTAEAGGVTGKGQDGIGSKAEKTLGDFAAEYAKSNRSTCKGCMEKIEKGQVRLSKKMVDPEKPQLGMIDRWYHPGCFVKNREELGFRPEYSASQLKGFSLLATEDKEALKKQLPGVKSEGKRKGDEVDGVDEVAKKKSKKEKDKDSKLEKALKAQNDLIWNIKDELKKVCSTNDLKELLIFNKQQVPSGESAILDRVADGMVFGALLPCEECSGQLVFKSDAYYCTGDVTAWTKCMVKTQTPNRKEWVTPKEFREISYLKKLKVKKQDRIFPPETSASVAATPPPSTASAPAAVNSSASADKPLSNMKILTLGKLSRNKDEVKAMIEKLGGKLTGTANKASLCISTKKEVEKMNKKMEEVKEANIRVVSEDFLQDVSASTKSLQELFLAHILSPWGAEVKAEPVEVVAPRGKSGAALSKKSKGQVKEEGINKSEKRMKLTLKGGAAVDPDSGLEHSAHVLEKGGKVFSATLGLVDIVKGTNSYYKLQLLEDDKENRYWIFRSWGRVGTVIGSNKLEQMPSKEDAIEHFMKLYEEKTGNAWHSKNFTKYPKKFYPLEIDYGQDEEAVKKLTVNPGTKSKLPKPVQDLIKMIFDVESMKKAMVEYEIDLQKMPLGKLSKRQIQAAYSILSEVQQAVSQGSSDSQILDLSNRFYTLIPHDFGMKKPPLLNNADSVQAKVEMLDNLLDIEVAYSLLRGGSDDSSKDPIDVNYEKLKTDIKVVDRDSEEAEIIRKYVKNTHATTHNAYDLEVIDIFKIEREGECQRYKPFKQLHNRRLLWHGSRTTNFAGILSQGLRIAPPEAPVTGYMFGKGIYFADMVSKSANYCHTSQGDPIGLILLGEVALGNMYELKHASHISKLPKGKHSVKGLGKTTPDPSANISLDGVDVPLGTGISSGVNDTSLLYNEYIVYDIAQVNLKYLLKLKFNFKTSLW", "test": "PARP inhibitor assay (HT Fluorescent Homogeneous PARP Inhibition Assay Kit)", "type": "biochemical", "conditions": "score", "outline": "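Human PARP1 with NAD and activated DNA, compounds at 10 μM final, 30 min at room temperature in dark. Resazurin/diaphorase cycling mix then added for 1 hr in dark before stop buffer; fluorescent homogeneous kit read-out.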"}, "NRF2": {"test_system": "NRF2", "test": "qPCR analysis of NRF2-regulated genes", "type": "cell-based, human", "conditions": "for fold induction at 10 µM: Homo sapiens", "outline": "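WI-38 cells treated with compound at 10 μM for 24 hrs, then processed by Cells-to-Ct for RNA isolation, RT and qPCR of NRF2-regulated genes (HMOX1, NQO1, GCLC, GSTM1). Expression normalized to B2M, PPIA and GAPDH; siRNA knockdown of FOXO3 or NRF2 (10 nM) preceded treatment in some runs.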"}, "WI-38 cells": {"test_system": "WI-38 cells", "description": "WI-38 cells were seeded on 384-well plates for 24 hrs and then incubated with small molecules for 24 hrs. […] Images were collected on an INCell Analyzer 2000 (GE) and analyzed with the Developer software."}},
  "note": "Where two headings read alike, the source gives them in different places.",
  "data": [
    {"smiles": "O=C(Nc1ccc(Cl)c(Cl)c1)c1ccc([N+](=O)[O-])o1", "note": "[Gr-1G]", "values": [
      {"measurement": "SOD2 expression, normalized fold change (FOXO3-regulated gene)", "setting": "FOXO3; 10 μM, 24 hrs, WI-38 cells, qPCR, normalized to B2M, n = 4", "value": "SOD2 0.76, fold"},
      {"measurement": "E = Potential FOXO3 Activation", "setting": "FOXO3; 2-point score", "value": 0},
      {"measurement": "fold induction at 10 µM", "setting": "FOXO3; 24 h, Assay 10(m), at 10 uM, qPCR, read-out: Induction of FOXO3-regulated genes: CAT normalized fold-change", "value": 1.35},
      {"measurement": "fold induction at 10 µM", "setting": "FOXO3; 24 h, Assay 10(m), at 10 uM, qPCR, read-out: Induction of FOXO3-regulated genes: GADD45A normalized fold-change", "value": 0.6},
      {"measurement": "fold induction at 10 µM", "setting": "FOXO3; 24 h, Assay 10(m), at 10 uM, qPCR, read-out: Induction of FOXO3-regulated genes: SOD2 normalized fold-change", "value": 0.76},
      {"measurement": "fold induction at 10 µM", "setting": "FOXO3; 10 μM, 24 hrs, WI-38 cells, qPCR, normalized to B2M, n = 4, read-out: CAT expression, normalized fold change (FOXO3-regulated gene)", "value": 1.35},
      {"measurement": "fold induction at 10 µM", "setting": "FOXO3; 10 μM, 24 hrs, WI-38 cells, qPCR, normalized to B2M, n = 4, read-out: GADD45A expression, normalized fold change (FOXO3-regulated gene)", "value": 0.6},
      {"measurement": "fold induction at 10 µM", "setting": "FOXO3; WI-38 cells, 10 μM, 24 hrs, n=4, qPCR normalized by B2M, read-out: DDB1 Normalized fold change", "value": 1.14},
      {"measurement": "fold induction at 10 µM", "setting": "FOXO3; WI-38 cells, 10 μM, 24 hrs, n=4, qPCR normalized by B2M, read-out: GADD45A Normalized fold change", "value": 0.597},
      {"measurement": "fold induction at 10 µM", "setting": "FOXO3; WI-38 cells, 10 μM, 24 hrs, n=4, qPCR normalized by B2M, read-out: SESN1 Normalized fold change", "value": 1.38},
      {"measurement": "fold induction at 10 µM", "setting": "FOXO3; fold change, qPCR, WI-38 cells, 10 μM, 24 hrs, read-out: Summary of effects on FOXO3-regulated genes: CAT", "value": 1.35},
      {"measurement": "fold induction at 10 µM", "setting": "FOXO3; fold change, qPCR, WI-38 cells, 10 μM, 24 hrs, read-out: Summary of effects on FOXO3-regulated genes: GADD45A", "value": 0.6},
      {"measurement": "fold induction at 10 µM", "setting": "FOXO3; qPCR, WI-38 cells, 10 μM, n=4, 24 hrs, normalized by B2M, read-out: CAT Normalized fold change", "value": 1.35},
      {"measurement": "fold induction at 10 µM", "setting": "FOXO3; qPCR, WI-38 cells, 10 μM, n=4, 24 hrs, normalized by B2M, read-out: SOD2 Normalized fold change", "value": 0.756},
      {"measurement": "fold induction at 10 µM", "setting": "FOXO3; qPCR, WI-38 cells, 10 μM, n=4, 24 hrs, normalized by B2M, read-out: TXNIP Normalized fold change", "value": 1.03},
      {"measurement": "Summary of effects on FOXO3-regulated genes: SOD2", "setting": "FOXO3; fold change, qPCR, WI-38 cells, 10 μM, 24 hrs", "value": "SOD2 0.76,"},
      {"measurement": "K = Sestrin induction", "setting": "FOXO3; score", "value": 0},
      {"measurement": "E = Potential FOXO3 Activation", "setting": "FOXO3; summary score", "value": 0},
      {"measurement": "ILS at 60 µM", "setting": "C. elegans; in liquid, wild type, with FuDR, 1.0 × 10^9 bacteria/ml, read-out: relative change of mean lifespan vs control, Trial 1", "value": 1.3, "unit": "%"},
      {"measurement": "ILS at 60 µM", "setting": "C. elegans; in liquid, wild type, with FuDR, 2.5 × 10^9 bacteria/ml, read-out: relative change of mean lifespan vs control, Trial 2", "value": 10.2, "unit": "%"},
      {"measurement": "ILS at 60 µM", "setting": "C. elegans; on plate, CF512 temperature-sensitive sterile animals, without FuDR, 1.0 × 10^11 bacteria/ml, read-out: relative change of mean lifespan vs control, Trial 4", "value": 5.8, "unit": "%"},
      {"measurement": "ILS at 60 µM", "setting": "C. elegans; on plate, CF512 temperature-sensitive sterile animals, without FuDR, 2.0 × 10^10 bacteria/ml, read-out: relative change of mean lifespan vs control, Trial 3", "value": 24.7, "unit": "%"},
      {"measurement": "ILS at 66 µM", "setting": "C. elegans; Assay 2(z), 1.0 × 10^9 bacteria/ml, wild type + FuDR (2012 July), read-out: Lifespan assay in liquid", "value": 1.3, "unit": "%"},
      {"measurement": "ILS at 66 µM", "setting": "C. elegans; Assay 3(aa), 2.5 × 10^9 bacteria/ml, wild type + FuDR, read-out: Lifespan assay in liquid", "value": 10.2, "unit": "%"},
      {"measurement": "ILS at 66 µM", "setting": "C. elegans; Assay 4(ab), 2.0 × 10^10 bacteria/ml, CF512 worms, no FuDR, read-out: Lifespan assay on plates", "value": 24.7, "unit": "%"},
      {"measurement": "ILS at 66 µM", "setting": "C. elegans; Assay 5(ac), 1.0 × 10^11 bacteria/ml, CF512 worms, no FuDR, read-out: Lifespan assay on plates", "value": 5.8, "unit": "%"},
      {"measurement": "O = Life span- extending scores in worms", "setting": "C. elegans; score scale 0 to 2, 4 to 6 independent trials", "value": "1 (1 for lifespan extension observed in 2 trials)"},
      {"measurement": "M = Lifespan-extending scores in worms", "setting": "C. elegans; summary score", "value": "1 (1 for lifespan extension observed in 2 trials)"},
      {"measurement": "L = PARP inhibition", "setting": "human PARP1", "value": 0},
      {"measurement": "F = Potential NRF2 Activation", "setting": "NRF2; 2-point score", "value": 0},
      {"measurement": "fold induction at 10 µM", "setting": "NRF2; 24 h, Assay 12(o), at 10 uM, qPCR, read-out: Induction of NRF2-regulated genes: GCLC normalized fold-change", "value": 1.57},
      {"measurement": "fold induction at 10 µM", "setting": "NRF2; 24 h, Assay 12(o), at 10 uM, qPCR, read-out: Induction of NRF2-regulated genes: HMOX1 normalized fold-change", "value": 0.5},
      {"measurement": "fold induction at 10 µM", "setting": "NRF2; rounded fold change, WI-38 cells, 10 μM, 24 hrs (RP11 for Gr-1D, RP29 for Gr-4D), read-out: Summary of effects on NRF2-regulated genes: HMOX1", "value": 0.5},
      {"measurement": "fold induction at 10 µM", "setting": "NRF2; rounded fold change, WI-38 cells, 10 μM, 24 hrs, read-out: Summary of effects on NRF2-regulated genes: GCLC", "value": 1.57},
      {"measurement": "fold induction at 10 µM", "setting": "NRF2; 10 μM, 24 hrs, WI-38 cells, qPCR, normalized to B2M, n = 4, read-out: GCLC expression, normalized fold change (NRF2-regulated gene)", "value": 1.57},
      {"measurement": "fold induction at 10 µM", "setting": "NRF2; 10 μM, 24 hrs, WI-38 cells, qPCR, normalized to B2M, n = 4, read-out: HMOX1 expression, normalized fold change (NRF2-regulated gene)", "value": 0.5},
      {"measurement": "fold induction at 10 µM", "setting": "NRF2; WI-38 cells, 10 μM, 24 hrs, n=4, qPCR normalized by B2M, read-out: GCLC Normalized fold change", "value": 1.57},
      {"measurement": "fold induction at 10 µM", "setting": "NRF2; WI-38 cells, 10 μM, 24 hrs, n=4, qPCR normalized by B2M, read-out: GSTM1 Normalized fold change", "value": 0.948},
      {"measurement": "fold induction at 10 µM", "setting": "NRF2; WI-38 cells, 10 μM, 24 hrs, n=4, qPCR normalized by B2M, read-out: HMOX1 Normalized fold change", "value": 0.503},
      {"measurement": "fold induction at 10 µM", "setting": "NRF2; WI-38 cells, 10 μM, 24 hrs, n=4, qPCR normalized by B2M, read-out: NQO1 Normalized fold change", "value": 1.26},
      {"measurement": "F = Potential NRF2 Activation", "setting": "NRF2; summary score", "value": 0},
      {"measurement": "PI cell-death imaging without H2O2 (indicating potential toxicity)", "setting": "WI-38 cells; Assay 8(k), without H2O2, at 10 uM", "value": "YES"},
      {"measurement": "PI-positive dead cells under normal conditions", "setting": "WI-38 cells; WI-38, no H2O2, control 0.4±0.2%", "value": "7.1%±1.1%"}
    ]}
  ]
}
